Assay results from BigSolDB 2.1.

C=C[C@]1(C)C[C@@H](OC(=O)CSCCN(CC)CC)[C@]2(C)[C@H](C)CC[C@]3(CCC(=O)[C@H]32)[C@@H](C)[C@@H]1O.O=C(O)/C=C/C(=O)O
solubility (mole fraction)
Conditions	283.15 K	293.15 K	303.15 K	313.15 K	323.15 K
in MIBK	0.000867	0.00108	0.00134	0.00191	0.00254
in acetone	0.00132	0.00257	0.00377	0.00574	0.00861
in acetonitrile	8.33e-05	0.00016	0.000235	0.000495	0.000993
in ethyl acetate	0.000525	0.000719	0.00102	0.00147	0.00215
in isobutyl acetate	0.000437	0.000574	0.000744	0.00103	0.00143
in isopropanol	0.00103	0.00124	0.00173	0.00288	0.00466
in isopropyl acetate	0.00044	0.00061	0.000823	0.00118	0.00163
in methyl acetate	0.000372	0.000443	0.000624	0.000964	0.00142
in n-butanol	0.00276	0.00458	0.00596	0.00962	0.0173
in n-butyl acetate	0.000517	0.000712	0.001	0.0013	0.00168
in toluene	5.73e-05	9.62e-05	0.000174	0.000274	0.000537
